Data from ChEMBL document CHEMBL3352103, “Investigations of amide bond variation and biaryl modification in analogues of α7 nAChR agonist SEN12333” (Eur J Med Chem, 2014).

Each compound was assayed against T1, Neuronal acetylcholine receptor subunit alpha-7 (Rattus norvegicus, UniProt Q05941) (assay: Displacement of [3H]EB from rat nAChR alpha7 expressed in HEK293 cell membranes by liquid scintillation counting). Conditions: not given; call rule not given here.
T1 sequence (Q05941 whole entry): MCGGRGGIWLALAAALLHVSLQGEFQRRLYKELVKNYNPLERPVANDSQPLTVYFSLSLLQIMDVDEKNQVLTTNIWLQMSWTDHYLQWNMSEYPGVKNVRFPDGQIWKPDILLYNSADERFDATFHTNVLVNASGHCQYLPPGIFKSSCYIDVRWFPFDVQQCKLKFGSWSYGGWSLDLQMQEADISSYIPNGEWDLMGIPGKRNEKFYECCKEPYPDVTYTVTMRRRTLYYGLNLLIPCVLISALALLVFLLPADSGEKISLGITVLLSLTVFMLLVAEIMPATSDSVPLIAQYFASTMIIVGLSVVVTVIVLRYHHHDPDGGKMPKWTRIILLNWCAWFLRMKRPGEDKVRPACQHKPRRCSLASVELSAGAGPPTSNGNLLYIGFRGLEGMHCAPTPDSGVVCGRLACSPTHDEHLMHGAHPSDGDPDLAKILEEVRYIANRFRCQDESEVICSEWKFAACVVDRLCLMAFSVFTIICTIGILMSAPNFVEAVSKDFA
Work on O=C(CCCCN1CCOCC1)Nc1ccc(-c2cccnc2)cc1 yielded a Ki of 0.67 µM.
O=C(CCCCN1CCOCC1)Nc1ccc(-c2ccccc2)cc1 was tested, and the Ki was 2.3 µM.
O=C(NCCCCN1CCOCC1)c1ccc(-c2cccnc2)cc1 gave a Ki of 11 µM.
O=C(NCCCCN1CCOCC1)c1ccc(-c2ccccc2)cc1 showed a Ki of 1.8 µM.
Work on c1cncc(-c2ccc(-n3nnnc3CCCCN3CCOCC3)cc2)c1 yielded a Ki of 216 µM.
In the case of c1ccc(-c2ccc(-n3nnnc3CCCCN3CCOCC3)cc2)cc1, the Ki is reported as 236 µM.
c1cncc(-c2ccc(-c3nnnn3CCCCN3CCOCC3)cc2)c1 was tested, and the Ki was 165 µM.
Work on c1ccc(-c2ccc(-c3nnnn3CCCCN3CCOCC3)cc2)cc1 yielded a Ki of 156 µM.

These compounds were tested against Neuronal acetylcholine receptor; alpha4/beta2 (Rattus norvegicus, UniProt P09483+P12390) (assay: Displacement of [3H]EB from rat nAChR alpha4beta2 expressed in HEK293 cell membranes by liquid scintillation counting). Conditions: hek293.
Sequence of Neuronal acetylcholine receptor; alpha4/beta2 (P09483 whole entry): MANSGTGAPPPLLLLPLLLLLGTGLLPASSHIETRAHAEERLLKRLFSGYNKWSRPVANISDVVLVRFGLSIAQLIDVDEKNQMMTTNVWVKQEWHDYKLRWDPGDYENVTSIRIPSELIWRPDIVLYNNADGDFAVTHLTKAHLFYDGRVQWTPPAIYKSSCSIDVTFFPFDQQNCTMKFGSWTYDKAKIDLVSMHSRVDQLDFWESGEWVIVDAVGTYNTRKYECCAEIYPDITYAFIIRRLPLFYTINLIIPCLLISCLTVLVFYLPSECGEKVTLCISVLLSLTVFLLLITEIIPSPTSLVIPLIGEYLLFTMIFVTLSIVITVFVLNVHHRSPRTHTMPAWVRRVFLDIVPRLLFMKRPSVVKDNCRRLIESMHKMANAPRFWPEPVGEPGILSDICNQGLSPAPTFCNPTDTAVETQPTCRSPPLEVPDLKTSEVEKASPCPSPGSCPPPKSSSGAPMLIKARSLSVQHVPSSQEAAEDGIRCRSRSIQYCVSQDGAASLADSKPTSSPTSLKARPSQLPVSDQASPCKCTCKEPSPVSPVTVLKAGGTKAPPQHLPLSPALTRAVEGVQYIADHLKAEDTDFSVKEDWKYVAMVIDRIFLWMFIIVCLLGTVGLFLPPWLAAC
Sequence of Neuronal acetylcholine receptor; alpha4/beta2 (P12390 whole entry): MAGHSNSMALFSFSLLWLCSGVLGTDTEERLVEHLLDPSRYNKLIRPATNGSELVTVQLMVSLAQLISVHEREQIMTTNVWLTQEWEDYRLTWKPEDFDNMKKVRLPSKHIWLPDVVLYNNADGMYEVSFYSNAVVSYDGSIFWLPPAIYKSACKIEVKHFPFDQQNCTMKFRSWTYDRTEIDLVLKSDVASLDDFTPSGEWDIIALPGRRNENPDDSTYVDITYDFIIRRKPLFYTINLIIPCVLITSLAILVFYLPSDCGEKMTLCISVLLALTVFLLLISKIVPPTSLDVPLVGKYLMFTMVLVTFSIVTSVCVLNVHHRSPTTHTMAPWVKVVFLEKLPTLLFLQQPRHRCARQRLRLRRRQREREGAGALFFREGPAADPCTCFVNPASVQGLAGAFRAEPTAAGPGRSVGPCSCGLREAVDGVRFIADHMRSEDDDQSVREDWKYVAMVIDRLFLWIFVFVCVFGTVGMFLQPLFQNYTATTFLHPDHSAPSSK
In the case of c1cncc(-c2ccc(-n3nnnc3CCCCN3CCOCC3)cc2)c1, the Ki is reported as “Not Active”.
c1ccc(-c2ccc(-n3nnnc3CCCCN3CCOCC3)cc2)cc1 was tested, and the Ki was “Not Active”.
For c1cncc(-c2ccc(-c3nnnn3CCCCN3CCOCC3)cc2)c1, the Ki was “Not Active”.
For c1ccc(-c2ccc(-c3nnnn3CCCCN3CCOCC3)cc2)cc1, the Ki was “Not Active”.

Same assay, conditions: read-out: Ki
Work on O=C(CCCCN1CCOCC1)Nc1ccc(-c2cccnc2)cc1 yielded a Ki greater than 10 µM.
With O=C(CCCCN1CCOCC1)Nc1ccc(-c2ccccc2)cc1 the Ki was greater than 10 µM.
O=C(NCCCCN1CCOCC1)c1ccc(-c2cccnc2)cc1 showed a Ki greater than 10 µM.
Compound O=C(NCCCCN1CCOCC1)c1ccc(-c2ccccc2)cc1 has a Ki greater than 10 µM.

Each compound was assayed against Neuronal acetylcholine receptor; alpha3/beta4 (Rattus norvegicus, UniProt P04757+P12392) (assay: Displacement of [3H]EB from rat nAChR alpha3beta4 expressed in HEK293 cell membranes by liquid scintillation counting). Conditions: hek293.
Sequence of Neuronal acetylcholine receptor; alpha3/beta4 (P04757 whole entry): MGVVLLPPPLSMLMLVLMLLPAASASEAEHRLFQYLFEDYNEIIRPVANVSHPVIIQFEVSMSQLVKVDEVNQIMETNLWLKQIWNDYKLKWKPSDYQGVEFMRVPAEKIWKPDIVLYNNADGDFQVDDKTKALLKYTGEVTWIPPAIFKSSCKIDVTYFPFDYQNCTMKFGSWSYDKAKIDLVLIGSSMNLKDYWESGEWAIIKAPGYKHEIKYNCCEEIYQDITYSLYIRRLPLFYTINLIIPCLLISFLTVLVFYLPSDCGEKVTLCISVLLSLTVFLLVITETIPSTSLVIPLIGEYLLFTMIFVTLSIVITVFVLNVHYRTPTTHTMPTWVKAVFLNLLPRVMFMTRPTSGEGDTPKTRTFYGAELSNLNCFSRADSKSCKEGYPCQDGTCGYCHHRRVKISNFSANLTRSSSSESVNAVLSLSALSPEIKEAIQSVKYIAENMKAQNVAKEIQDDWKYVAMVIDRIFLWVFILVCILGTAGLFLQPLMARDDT
Sequence of Neuronal acetylcholine receptor; alpha3/beta4 (P12392 whole entry): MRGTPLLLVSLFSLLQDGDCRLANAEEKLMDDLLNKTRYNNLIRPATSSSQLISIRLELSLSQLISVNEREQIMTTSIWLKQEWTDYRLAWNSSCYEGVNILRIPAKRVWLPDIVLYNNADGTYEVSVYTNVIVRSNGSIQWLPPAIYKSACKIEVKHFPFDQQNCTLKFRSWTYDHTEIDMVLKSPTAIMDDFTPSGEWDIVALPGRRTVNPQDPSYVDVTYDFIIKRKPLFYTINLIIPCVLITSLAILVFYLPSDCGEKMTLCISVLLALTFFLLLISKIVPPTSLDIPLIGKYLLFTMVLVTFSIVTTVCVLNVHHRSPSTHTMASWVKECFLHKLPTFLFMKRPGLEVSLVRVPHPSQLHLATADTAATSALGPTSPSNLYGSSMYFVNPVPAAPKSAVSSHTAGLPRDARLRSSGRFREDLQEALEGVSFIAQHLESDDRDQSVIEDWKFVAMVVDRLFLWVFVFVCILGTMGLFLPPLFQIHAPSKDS
With c1cncc(-c2ccc(-n3nnnc3CCCCN3CCOCC3)cc2)c1 the Ki was “Not Active”.

Same assay, conditions: read-out: Ki
For O=C(CCCCN1CCOCC1)Nc1ccc(-c2cccnc2)cc1, the Ki was greater than 10 µM.
O=C(CCCCN1CCOCC1)Nc1ccc(-c2ccccc2)cc1 showed a Ki greater than 10 µM.
With O=C(NCCCCN1CCOCC1)c1ccc(-c2cccnc2)cc1 the Ki was greater than 10 µM.
With O=C(NCCCCN1CCOCC1)c1ccc(-c2ccccc2)cc1 the Ki was greater than 10 µM.
Work on c1ccc(-c2ccc(-n3nnnc3CCCCN3CCOCC3)cc2)cc1 yielded a Ki greater than 1000 µM.
c1cncc(-c2ccc(-c3nnnn3CCCCN3CCOCC3)cc2)c1 showed a Ki greater than 1000 µM.
Compound c1ccc(-c2ccc(-c3nnnn3CCCCN3CCOCC3)cc2)cc1 has a Ki greater than 100 µM.

Each compound was assayed against T1, Neuronal acetylcholine receptor subunit alpha-7 (assay: Agonist activity at rat nAChR alpha7 expressed in GH4C1 cells by fluorescent calcium assay). Conditions: gh4-c1.
Assay type: cell-based, GH4-C1
With O=C(NCCCCN1CCOCC1)c1ccc(-c2cccnc2)cc1 the EC50 was “Not Active”.
With c1cncc(-c2ccc(-n3nnnc3CCCCN3CCOCC3)cc2)c1 the EC50 was “Not Active”.
c1ccc(-c2ccc(-n3nnnc3CCCCN3CCOCC3)cc2)cc1 was tested, and the EC50 was “Not Active”.
c1cncc(-c2ccc(-c3nnnn3CCCCN3CCOCC3)cc2)c1 was tested, and the EC50 was “Not Active”.
In the case of c1ccc(-c2ccc(-c3nnnn3CCCCN3CCOCC3)cc2)cc1, the EC50 is reported as “Not Active”.

Same assay, conditions: read-out: EC50
O=C(CCCCN1CCOCC1)Nc1ccc(-c2cccnc2)cc1 gave an EC50 of 0.86 µM.
Work on O=C(CCCCN1CCOCC1)Nc1ccc(-c2ccccc2)cc1 yielded an EC50 of 1.75 µM.
In the case of O=C(NCCCCN1CCOCC1)c1ccc(-c2ccccc2)cc1, the EC50 is reported as 2.37 µM.
